Where two headings read alike, the source gives them in different places.
Tested on: NCI-60 standardized human tumor cell line panel
Experiment: cells
Assay type: cell-based
[1] = cell line A549/ATCC (LC:A549/ATCC), TMI sheet
[2] = cell line BT-549 (BR:BT-549), TMI sheet
[3] = cell line CCRF-CEM (LE:CCRF-CEM), TMI sheet
[4] = cell line COLO 205 (CO:COLO 205), TMI sheet
[5] = cell line EKVX (LC:EKVX), TMI sheet
[6] = cell line HCC-2998 (CO:HCC-2998), TMI sheet
[7] = cell line HCT-15 (CO:HCT-15), TMI sheet
[8] = cell line HCT-116 (CO:HCT-116), TMI sheet
[9] = cell line HL-60(TB) (LE:HL-60(TB)), TMI sheet
[10] = cell line HOP-62 (LC:HOP-62), TMI sheet
[11] = cell line HOP-92 (LC:HOP-92), TMI sheet
[12] = cell line HT29 (CO:HT29), TMI sheet
[13] = cell line K-562 (LE:K-562), TMI sheet
[14] = cell line KM12 (CO:KM12), TMI sheet
[15] = cell line LOX IMVI (ME:LOX IMVI), TMI sheet
[16] = cell line M14 (ME:M14), TMI sheet
[17] = cell line MALME-3M (ME:MALME-3M), TMI sheet
[18] = cell line MCF7 (BR:MCF7), TMI sheet
[19] = cell line MDA-MB-435 (ME:MDA-MB-435), TMI sheet
[20] = cell line MOLT-4 (LE:MOLT-4), TMI sheet
[21] = cell line NCI-H23 (LC:NCI-H23), TMI sheet
[22] = cell line NCI-H226 (LC:NCI-H226), TMI sheet
[23] = cell line RPMI-8226 (LE:RPMI-8226), TMI sheet
[24] = cell line SF-268 (CNS:SF-268), TMI sheet
[25] = cell line SF-295 (CNS:SF-295), TMI sheet
[26] = cell line SF-539 (CNS:SF-539), TMI sheet
[27] = cell line SK-MEL-5 (ME:SK-MEL-5), TMI sheet
[28] = cell line SK-MEL-28 (ME:SK-MEL-28), TMI sheet
[29] = cell line SNB-19 (CNS:SNB-19), TMI sheet
[30] = cell line SR (LE:SR), TMI sheet
[31] = cell line SW-620 (CO:SW-620), TMI sheet
[32] = cell line T-47D (BR:T-47D), TMI sheet
[33] = cell line U251 (CNS:U251), TMI sheet
[34] = cell line UACC-62 (ME:UACC-62), TMI sheet
[35] = cell line UACC-257 (ME:UACC-257), TMI sheet

Compound: COc1cc2cc(C(=O)N3C[C@@H](CCl)c4c3cc(OC(=O)N(CCC(=O)N3CCN(C)CC3)[C@H]3CCSSC3)c3ccccc43)[nH]c2c(OC)c1OC [P-SS60-CBI-TMI]
- GI50 (U251, read-out: GI50): 160 nM
- GI50 (UACC-62, read-out: GI50): 270 nM
- GI50 (UACC-257, read-out: GI50): 630 nM
- NCI-60 screening: Log(GI50) [1]: -6.82
- NCI-60 screening: Log(RedIndex) [1]: 1.12
- GI50 (cell line A549/ATCC (LC:A549/ATCC), TMI sheet, read-out: NCI-60 screening: Raw GI50): 150 nM
- NCI-60 screening: Log(GI50) [2]: -6.64
- NCI-60 screening: Log(RedIndex) [2]: 0.84
- GI50 (cell line BT-549 (BR:BT-549), TMI sheet, read-out: NCI-60 screening: Raw GI50): 230 nM
- NCI-60 screening: Log(GI50) [3]: -6.66
- NCI-60 screening: Log(RedIndex) [3]: 0.66
- GI50 (cell line CCRF-CEM (LE:CCRF-CEM), TMI sheet, read-out: NCI-60 screening: Raw GI50): 220 nM
- NCI-60 screening: Log(GI50) [4]: -6.47
- NCI-60 screening: Log(RedIndex) [4]: 0.6
- NCI-60 screening: Log(GI50) [5]: -6.5
- NCI-60 screening: Log(RedIndex) [5]: 0.79
- NCI-60 screening: Log(GI50) [6]: -6.8
- NCI-60 screening: Log(RedIndex) [6]: 0.98
- GI50 (cell line HCC-2998 (CO:HCC-2998), TMI sheet, read-out: NCI-60 screening: Raw GI50): 160 nM
- NCI-60 screening: Log(GI50) [7]: -6.59
- NCI-60 screening: Log(RedIndex) [7]: 0.82
- GI50 (cell line HCT-15 (CO:HCT-15), TMI sheet, read-out: NCI-60 screening: Raw GI50): 260 nM
- NCI-60 screening: Log(GI50) [8]: -6.8
- NCI-60 screening: Log(RedIndex) [8]: 0.98
- GI50 (cell line HCT-116 (CO:HCT-116), TMI sheet, read-out: NCI-60 screening: Raw GI50): 160 nM
- NCI-60 screening: Log(GI50) [9]: -6.92
- NCI-60 screening: Log(RedIndex) [9]: 0.8
- NCI-60 screening: Log(GI50) [10]: -6.96
- NCI-60 screening: Log(RedIndex) [10]: 0.73
- NCI-60 screening: Log(GI50) [11]: -6.46
- NCI-60 screening: Log(RedIndex) [11]: 0.86
- NCI-60 screening: Log(GI50) [12]: -6.57
- NCI-60 screening: Log(RedIndex) [12]: 0.75
- GI50 (cell line HT29 (CO:HT29), TMI sheet, read-out: NCI-60 screening: Raw GI50): 270 nM
- NCI-60 screening: Log(GI50) [13]: -6.79
- NCI-60 screening: Log(RedIndex) [13]: 0.62
- GI50 (cell line K-562 (LE:K-562), TMI sheet, read-out: NCI-60 screening: Raw GI50): 160 nM
- NCI-60 screening: Log(GI50) [14]: -6.57
- NCI-60 screening: Log(RedIndex) [14]: 0.89
- GI50 (cell line KM12 (CO:KM12), TMI sheet, read-out: NCI-60 screening: Raw GI50): 270 nM
- NCI-60 screening: Log(GI50) [15]: -6.68
- NCI-60 screening: Log(RedIndex) [15]: 0.72
- GI50 (cell line LOX IMVI (ME:LOX IMVI), TMI sheet, read-out: NCI-60 screening: Raw GI50): 210 nM
- NCI-60 screening: Log(GI50) [16]: -6.72
- NCI-60 screening: Log(RedIndex) [16]: 0.9
- GI50 (cell line M14 (ME:M14), TMI sheet, read-out: NCI-60 screening: Raw GI50): 190 nM
- NCI-60 screening: Log(GI50) [17]: -6.55
- NCI-60 screening: Log(RedIndex) [17]: 0.75
- NCI-60 screening: Log(GI50) [18]: -7.45
- NCI-60 screening: Log(RedIndex) [18]: 0.95
- NCI-60 screening: Log(GI50) [19]: -6.67
- NCI-60 screening: Log(RedIndex) [19]: 0.92
- GI50 (cell line MDA-MB-435 (ME:MDA-MB-435), TMI sheet, read-out: NCI-60 screening: Raw GI50): 210 nM
- NCI-60 screening: Log(GI50) [20]: -7.05
- NCI-60 screening: Log(RedIndex) [20]: 0.82
- NCI-60 screening: Log(GI50) [21]: -7.26
- NCI-60 screening: Log(RedIndex) [21]: 0.93
- NCI-60 screening: Log(GI50) [22]: -6.36
- NCI-60 screening: Log(RedIndex) [22]: 0.52
- NCI-60 screening: Log(GI50) [23]: -6.65
- NCI-60 screening: Log(RedIndex) [23]: 0.82
- GI50 (cell line RPMI-8226 (LE:RPMI-8226), TMI sheet, read-out: NCI-60 screening: Raw GI50): 220 nM
- NCI-60 screening: Log(GI50) [24]: -6.73
- NCI-60 screening: Log(RedIndex) [24]: 0.92
- GI50 (cell line SF-268 (CNS:SF-268), TMI sheet, read-out: NCI-60 screening: Raw GI50): 190 nM
- NCI-60 screening: Log(GI50) [25]: -6.84
- NCI-60 screening: Log(RedIndex) [25]: 1.03
- NCI-60 screening: Log(GI50) [26]: -6.78
- NCI-60 screening: Log(RedIndex) [26]: 0.89
- GI50 (cell line SF-539 (CNS:SF-539), TMI sheet, read-out: NCI-60 screening: Raw GI50): 170 nM
- NCI-60 screening: Log(GI50) [27]: -6.78
- NCI-60 screening: Log(RedIndex) [27]: 0.99
- GI50 (cell line SK-MEL-5 (ME:SK-MEL-5), TMI sheet, read-out: NCI-60 screening: Raw GI50): 170 nM
- NCI-60 screening: Log(GI50) [28]: -6.53
- NCI-60 screening: Log(RedIndex) [28]: 1.09
- GI50 (cell line SK-MEL-28 (ME:SK-MEL-28), TMI sheet, read-out: NCI-60 screening: Raw GI50): 290 nM
- NCI-60 screening: Log(GI50) [29]: -6.6
- NCI-60 screening: Log(RedIndex) [29]: 0.94
- GI50 (cell line SNB-19 (CNS:SNB-19), TMI sheet, read-out: NCI-60 screening: Raw GI50): 250 nM
- NCI-60 screening: Log(GI50) [30]: -7.47
- NCI-60 screening: Log(RedIndex) [30]: 0.91
- NCI-60 screening: Log(GI50) [31]: -6.66
- NCI-60 screening: Log(RedIndex) [31]: 0.93
- GI50 (cell line SW-620 (CO:SW-620), TMI sheet, read-out: NCI-60 screening: Raw GI50): 220 nM
- NCI-60 screening: Log(GI50) [32]: -6.16
- NCI-60 screening: Log(RedIndex) [32]: 0.44
- NCI-60 screening: Log(GI50) [33]: -6.79
- NCI-60 screening: Log(RedIndex) [33]: 0.96
- GI50 (cell line U251 (CNS:U251), TMI sheet, read-out: NCI-60 screening: Raw GI50): 160 nM
- NCI-60 screening: Log(GI50) [34]: -6.57
- NCI-60 screening: Log(RedIndex) [34]: 0.75
- GI50 (cell line UACC-62 (ME:UACC-62), TMI sheet, read-out: NCI-60 screening: Raw GI50): 270 nM
- NCI-60 screening: Log(GI50) [35]: -6.2
- NCI-60 screening: Log(RedIndex) [35]: 0.5
- GI50 (read-out: NCI-60 screening: Raw GI50): 230 nM

— PMC10141580, “Cyclic Dichalcogenides Extend the Reach of Bioreductive Prodrugs to Harness Thiol/Disulfide Oxidoreductases: Applications to seco-Duocarmycins Targeting the Thioredoxin System” (ACS Central Science, 2023)
